Results on 1 molecule are retold here after ChEMBL document CHEMBL4396888, “Design and Synthesis of Potent, Selective Inhibitors of Protein Arginine Methyltransferase 4 against Acute Myeloid Leukemia” (J Med Chem, 2019).

Usually IC50 stands for the concentration at which inhibition is half-maximal. By clearance is commonly meant the volume of plasma or blood freed of the substance per unit of time. The half-life is the time needed for the level to fall by half in the phase considered. One may read the AUC(0-t) as the area under the concentration-time curve up to a stated or last time point. Higher therefore signals more exposure. What is called AUC(0-inf) is total exposure, with the tail of the curve extrapolated.

For series [1], the target named is Protein arginine N-methyltransferase 8 (Homo sapiens, UniProt Q9NR22). Briefly: Inhibition of PRMT8 (unknown origin) preincubated for 15 mins followed by substrate addition and measured after 60 mins by AlphaLisa assay. Background: Bead proximity is the source of the signal in Alpha formats.
Chain of Protein arginine N-methyltransferase 8 (Q9NR22 whole entry): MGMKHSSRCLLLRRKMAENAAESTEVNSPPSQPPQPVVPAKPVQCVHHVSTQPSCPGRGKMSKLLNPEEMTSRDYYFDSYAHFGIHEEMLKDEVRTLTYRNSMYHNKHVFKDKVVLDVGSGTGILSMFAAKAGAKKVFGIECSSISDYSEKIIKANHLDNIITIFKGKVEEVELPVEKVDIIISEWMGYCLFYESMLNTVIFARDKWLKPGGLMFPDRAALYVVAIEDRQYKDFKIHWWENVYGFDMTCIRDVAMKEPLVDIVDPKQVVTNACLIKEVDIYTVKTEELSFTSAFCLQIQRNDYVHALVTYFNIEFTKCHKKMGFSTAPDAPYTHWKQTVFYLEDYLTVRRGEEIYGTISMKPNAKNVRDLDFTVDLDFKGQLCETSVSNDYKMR
For series [2], the target named is Protein arginine N-methyltransferase 5 (Homo sapiens, UniProt O14744). Put plainly: Inhibition of PRMT5 (unknown origin) preincubated for 15 mins followed by substrate addition and measured after 60 mins by AlphaLisa assay.
Chain of Protein arginine N-methyltransferase 5 (O14744 whole entry): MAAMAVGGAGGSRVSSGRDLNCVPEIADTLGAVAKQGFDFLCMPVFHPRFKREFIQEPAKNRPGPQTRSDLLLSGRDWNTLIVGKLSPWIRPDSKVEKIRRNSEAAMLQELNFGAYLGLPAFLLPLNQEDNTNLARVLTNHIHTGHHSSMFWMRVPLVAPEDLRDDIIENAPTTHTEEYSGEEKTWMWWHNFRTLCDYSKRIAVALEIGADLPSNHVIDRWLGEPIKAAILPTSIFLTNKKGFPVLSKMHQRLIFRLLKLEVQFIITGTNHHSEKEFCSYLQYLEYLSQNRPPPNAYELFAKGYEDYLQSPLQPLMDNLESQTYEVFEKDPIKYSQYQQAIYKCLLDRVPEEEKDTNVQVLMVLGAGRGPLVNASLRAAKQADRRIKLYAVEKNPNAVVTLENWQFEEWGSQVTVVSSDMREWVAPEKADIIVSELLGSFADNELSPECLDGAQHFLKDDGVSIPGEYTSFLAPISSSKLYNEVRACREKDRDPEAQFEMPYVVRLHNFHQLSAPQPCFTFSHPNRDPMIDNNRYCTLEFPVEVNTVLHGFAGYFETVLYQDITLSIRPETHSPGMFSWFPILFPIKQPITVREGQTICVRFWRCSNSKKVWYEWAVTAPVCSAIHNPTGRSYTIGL
The target in series [3] is Histone-lysine N-methyltransferase NSD2 (Homo sapiens) (UniProt O96028). Put plainly: Inhibition of NSD2 (unknown origin) up to 50 uM preincubated for 15 mins followed by substrate addition and measured after 60 mins by AlphaLisa assay.
Chain of Histone-lysine N-methyltransferase NSD2 (Homo sapiens) (O96028 whole entry): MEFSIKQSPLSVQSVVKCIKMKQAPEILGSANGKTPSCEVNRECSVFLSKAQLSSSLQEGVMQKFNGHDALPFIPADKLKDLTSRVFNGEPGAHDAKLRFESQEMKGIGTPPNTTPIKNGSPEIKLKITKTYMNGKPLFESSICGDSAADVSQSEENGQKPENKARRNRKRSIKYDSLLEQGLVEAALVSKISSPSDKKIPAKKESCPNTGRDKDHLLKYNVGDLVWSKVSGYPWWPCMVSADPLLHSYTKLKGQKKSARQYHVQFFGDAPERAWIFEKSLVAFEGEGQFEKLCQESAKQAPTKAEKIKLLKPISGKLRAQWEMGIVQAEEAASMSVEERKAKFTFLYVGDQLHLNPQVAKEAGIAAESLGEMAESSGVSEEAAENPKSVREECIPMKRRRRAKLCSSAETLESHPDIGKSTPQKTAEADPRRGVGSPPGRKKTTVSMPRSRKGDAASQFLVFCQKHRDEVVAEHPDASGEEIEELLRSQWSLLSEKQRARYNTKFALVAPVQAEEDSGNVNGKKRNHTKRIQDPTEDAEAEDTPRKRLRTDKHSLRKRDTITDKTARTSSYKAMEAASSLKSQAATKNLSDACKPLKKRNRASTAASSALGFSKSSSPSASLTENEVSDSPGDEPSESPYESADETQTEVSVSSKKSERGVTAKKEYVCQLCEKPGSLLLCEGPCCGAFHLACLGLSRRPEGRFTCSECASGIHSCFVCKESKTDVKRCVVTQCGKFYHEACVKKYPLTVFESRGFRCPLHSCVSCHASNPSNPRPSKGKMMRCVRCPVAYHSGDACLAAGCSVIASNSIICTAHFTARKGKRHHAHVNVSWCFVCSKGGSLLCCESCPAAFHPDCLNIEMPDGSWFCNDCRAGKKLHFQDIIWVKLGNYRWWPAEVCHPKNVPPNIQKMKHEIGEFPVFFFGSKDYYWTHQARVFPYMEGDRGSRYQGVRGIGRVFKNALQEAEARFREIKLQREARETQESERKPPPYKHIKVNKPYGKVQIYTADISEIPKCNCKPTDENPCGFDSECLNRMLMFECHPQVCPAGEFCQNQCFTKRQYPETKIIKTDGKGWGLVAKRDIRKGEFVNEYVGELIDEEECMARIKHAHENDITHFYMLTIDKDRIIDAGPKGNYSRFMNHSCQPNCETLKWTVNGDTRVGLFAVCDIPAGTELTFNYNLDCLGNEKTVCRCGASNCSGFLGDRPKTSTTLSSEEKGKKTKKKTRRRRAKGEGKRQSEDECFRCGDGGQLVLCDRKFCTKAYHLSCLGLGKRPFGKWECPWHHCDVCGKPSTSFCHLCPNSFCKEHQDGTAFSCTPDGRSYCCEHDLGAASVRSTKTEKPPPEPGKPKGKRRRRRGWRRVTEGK
Series [4] deals with Histone-lysine N-methyltransferase SETD2 (Homo sapiens) (UniProt Q9BYW2). Briefly: Inhibition of SETD2 (unknown origin) up to 50 uM.
Chain of Histone-lysine N-methyltransferase SETD2 (Homo sapiens) (Q9BYW2 whole entry): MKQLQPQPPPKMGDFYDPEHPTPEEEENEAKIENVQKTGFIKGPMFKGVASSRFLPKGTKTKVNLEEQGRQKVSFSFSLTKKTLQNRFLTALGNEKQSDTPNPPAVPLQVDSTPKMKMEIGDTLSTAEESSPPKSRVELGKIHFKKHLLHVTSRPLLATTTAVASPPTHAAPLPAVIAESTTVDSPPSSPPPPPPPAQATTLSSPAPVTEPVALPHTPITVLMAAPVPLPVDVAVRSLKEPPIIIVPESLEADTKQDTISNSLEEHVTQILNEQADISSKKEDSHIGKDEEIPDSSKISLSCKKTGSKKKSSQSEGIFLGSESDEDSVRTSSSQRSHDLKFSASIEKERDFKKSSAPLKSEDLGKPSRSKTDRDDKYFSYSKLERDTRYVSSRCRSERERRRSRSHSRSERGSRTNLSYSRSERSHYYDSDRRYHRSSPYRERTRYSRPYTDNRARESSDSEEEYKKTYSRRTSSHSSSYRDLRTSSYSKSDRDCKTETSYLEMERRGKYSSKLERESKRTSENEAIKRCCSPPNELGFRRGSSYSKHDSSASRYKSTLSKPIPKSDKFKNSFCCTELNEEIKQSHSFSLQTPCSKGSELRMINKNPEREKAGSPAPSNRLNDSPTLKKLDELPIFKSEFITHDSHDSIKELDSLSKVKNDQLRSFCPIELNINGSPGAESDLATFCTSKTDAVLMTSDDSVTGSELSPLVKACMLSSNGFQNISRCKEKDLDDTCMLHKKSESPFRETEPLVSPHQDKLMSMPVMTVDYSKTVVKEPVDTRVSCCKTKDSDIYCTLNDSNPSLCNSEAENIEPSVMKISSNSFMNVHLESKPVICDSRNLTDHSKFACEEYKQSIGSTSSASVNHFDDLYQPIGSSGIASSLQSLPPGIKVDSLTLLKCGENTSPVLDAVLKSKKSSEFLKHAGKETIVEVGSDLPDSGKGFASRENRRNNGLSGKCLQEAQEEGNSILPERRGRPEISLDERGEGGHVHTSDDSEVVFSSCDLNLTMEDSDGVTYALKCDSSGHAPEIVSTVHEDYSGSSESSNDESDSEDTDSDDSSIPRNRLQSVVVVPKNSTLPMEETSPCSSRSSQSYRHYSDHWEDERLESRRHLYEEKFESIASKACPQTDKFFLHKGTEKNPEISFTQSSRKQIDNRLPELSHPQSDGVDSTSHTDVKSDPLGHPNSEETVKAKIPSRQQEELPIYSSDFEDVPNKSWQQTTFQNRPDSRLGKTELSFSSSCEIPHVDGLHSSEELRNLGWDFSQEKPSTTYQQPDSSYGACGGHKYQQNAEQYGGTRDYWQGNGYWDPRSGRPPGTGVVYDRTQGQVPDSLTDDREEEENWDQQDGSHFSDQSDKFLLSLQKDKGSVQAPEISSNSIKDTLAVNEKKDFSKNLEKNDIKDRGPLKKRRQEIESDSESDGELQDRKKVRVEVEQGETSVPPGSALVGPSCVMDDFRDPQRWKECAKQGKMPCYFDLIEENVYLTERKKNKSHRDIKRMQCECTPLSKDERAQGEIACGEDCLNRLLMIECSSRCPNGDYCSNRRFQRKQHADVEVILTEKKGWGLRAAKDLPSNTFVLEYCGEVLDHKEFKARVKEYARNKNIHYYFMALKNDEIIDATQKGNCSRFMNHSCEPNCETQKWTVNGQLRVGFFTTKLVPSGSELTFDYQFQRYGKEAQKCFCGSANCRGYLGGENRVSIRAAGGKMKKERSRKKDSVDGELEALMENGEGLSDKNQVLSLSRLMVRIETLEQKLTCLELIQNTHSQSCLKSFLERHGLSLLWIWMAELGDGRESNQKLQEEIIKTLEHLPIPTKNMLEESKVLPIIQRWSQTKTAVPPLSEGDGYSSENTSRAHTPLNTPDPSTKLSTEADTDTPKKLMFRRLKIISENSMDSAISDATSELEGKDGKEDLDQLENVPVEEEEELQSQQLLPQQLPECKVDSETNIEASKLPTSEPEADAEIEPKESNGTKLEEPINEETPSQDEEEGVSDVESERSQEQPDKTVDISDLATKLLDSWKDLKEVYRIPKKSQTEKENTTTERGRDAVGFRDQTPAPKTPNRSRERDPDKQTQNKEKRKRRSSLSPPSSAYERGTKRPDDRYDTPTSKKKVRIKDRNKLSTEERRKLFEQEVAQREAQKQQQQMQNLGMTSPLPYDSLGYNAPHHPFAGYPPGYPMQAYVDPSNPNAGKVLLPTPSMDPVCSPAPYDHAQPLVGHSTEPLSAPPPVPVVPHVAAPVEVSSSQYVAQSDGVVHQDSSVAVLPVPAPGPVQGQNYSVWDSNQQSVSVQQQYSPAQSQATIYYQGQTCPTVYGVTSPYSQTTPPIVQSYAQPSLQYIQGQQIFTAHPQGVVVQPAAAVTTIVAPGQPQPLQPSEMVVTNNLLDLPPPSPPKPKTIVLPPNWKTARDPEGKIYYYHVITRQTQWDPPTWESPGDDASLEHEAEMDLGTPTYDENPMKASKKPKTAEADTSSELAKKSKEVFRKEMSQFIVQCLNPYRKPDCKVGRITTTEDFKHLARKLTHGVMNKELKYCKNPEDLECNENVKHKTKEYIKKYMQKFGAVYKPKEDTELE
Series [5] deals with MOLM-13. Briefly: Antiproliferative activity against human MOLM13 cells measured after 6 days by CCK8/SRB assay. To be noted: MOLM-13, 144 h. Background: Sulforhodamine B stains cellular protein and so reports cell mass.
Another series has as its system THP-1. Briefly: Antiproliferative activity against human THP1 cells measured after 6 days by CCK8/SRB assay. In kind it is functional, cell-based.
The subject of the next series is MOLT-4. Put plainly: Antiproliferative activity against human MOLT4 cells measured after 6 days by CCK8/SRB assay. In kind it is functional, cell-based.
Another series deals with MONO-MAC-6. Briefly: Antiproliferative activity against human MONO-MAC-6 cells measured after 6 days by CCK8/SRB assay. In kind it is functional, cell-based.
The next series has as its system HEL. Briefly: Antiproliferative activity against HEL cells measured after 6 days by CCK8/SRB assay. In kind it is functional, cell-based. To be noted: Homo sapiens.
The test system of a further series is K562. Briefly: Antiproliferative activity against human K562 cells measured after 6 days by CCK8/SRB assay. In kind it is functional, cell-based.
Series [6] concerns the target T1, Histone-arginine methyltransferase CARM1 (Homo sapiens, UniProt Q86X55).
T1 sequence (Q86X55 whole entry): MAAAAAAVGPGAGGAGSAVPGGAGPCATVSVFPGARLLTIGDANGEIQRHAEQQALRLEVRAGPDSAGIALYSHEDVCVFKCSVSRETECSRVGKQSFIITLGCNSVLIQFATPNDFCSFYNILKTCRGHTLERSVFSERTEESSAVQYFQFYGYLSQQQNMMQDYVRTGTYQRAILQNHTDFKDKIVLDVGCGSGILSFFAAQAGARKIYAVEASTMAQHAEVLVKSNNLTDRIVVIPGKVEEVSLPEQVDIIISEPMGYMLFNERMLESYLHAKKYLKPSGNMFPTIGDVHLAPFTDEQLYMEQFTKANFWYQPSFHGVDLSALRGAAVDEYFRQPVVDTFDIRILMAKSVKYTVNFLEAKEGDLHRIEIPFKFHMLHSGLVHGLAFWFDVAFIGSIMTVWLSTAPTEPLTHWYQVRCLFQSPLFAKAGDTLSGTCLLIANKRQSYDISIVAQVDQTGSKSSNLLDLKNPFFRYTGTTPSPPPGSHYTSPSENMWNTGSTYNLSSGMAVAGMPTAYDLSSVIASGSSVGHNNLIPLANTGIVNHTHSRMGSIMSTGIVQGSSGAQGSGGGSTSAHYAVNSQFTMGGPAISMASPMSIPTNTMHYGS
Briefly: Inhibition of PRMT4 in human MOLM13 cells assessed as reduction in PABP1 dimethylation measured after 96 hrs by Western blotting analysis. In kind it is cell-based. For orientation: Immunoblotting shows a protein as a band on a membrane.

Series [7] relates to MOLM-13. Put plainly: Cell cycle arrest in human MOLM13 cells assessed as increase in accumulation at G0/G1-phase measured after 72 hrs by propidium iodide staining-based flow cytometry. In kind it is functional.
A short description of series [8]: Clearance in ICR mouse at 3 mg/kg, iv by mass spectrometric analysis. In kind it is ADME, organism-based. Particulars: in vivo.
Series [9] can be described thus: Volume of distribution at steady state in ICR mouse at 3 mg/kg, iv by mass spectrometric analysis. In kind it is ADME, organism-based. To be noted: in vivo, read-out: Vdss.
Series [10] can be described thus: Half life in ICR mouse at 3 mg/kg, iv by mass spectrometric analysis. In kind it is ADME, organism-based. Particulars: in vivo.
Series [11] is described as follows: AUC (0 to last) in ICR mouse at 3 mg/kg, iv by mass spectrometric analysis. The arrangement: dose 3 mg/kg, route intravenous, time 0 - last. In kind it is ADME, organism-based. To be noted: in vivo.
The nature of series [12]: AUC (0 to infinity) in ICR mouse at 10 mg/kg, po administered via gavage by mass spectrometric analysis. To be noted: in vivo. In kind it is ADME, organism-based. Details: dose 10 mg/kg, time infinity, route oral.
Series [13] in a line: Protein binding in mouse plasma at 2 uM. In kind it is ADME, cell-free. To be noted: read-out: PPB (converted).
The subject of series [14] is Mus musculus. Put plainly: In vivo inhibition of PRMT4 in nude BALB/c mouse xenografted with human MOLM13 cells assessed as reduction in PABP1 dimethylation at 100 mg/kg, po administered daily for 18 days measured 6 hrs post-last dose by Western blot analysis. In kind it is functional, organism-based.
Series [15] relates to Mus musculus. Briefly: In vivo inhibition of PRMT4 in nude BALB/c mouse xenografted with human MOLM13 cells assessed as reduction in asymmetric dimethyl arginine level at 100 mg/kg, po administered daily for 18 days measured 6 hrs post-last dose by Western blot analysis. In kind it is functional, organism-based.
Series [16] can be described thus: Drug level in tumor of nude BALB/c mouse xenografted with human MOLM13 cells at 100 mg/kg, po administered daily for 18 days measured 6 hrs post-last dose by LC-MS/MS analysis. Particulars: read-out: Drug uptake. In kind it is ADME, organism-based, Neoplasm.
Series [17] is described as follows: Toxicity in nude BALB/c mouse xenografted with human MOLM13 cells assessed as body weight loss at 100 mg/kg, po administered daily for 18 days measured 2 to 3 times a week during compound dosing. In kind it is organism-based. Particulars: in vivo, 432 h.

SMILES strings stand for the structures. The source made the active and inactive calls. Where only a bound is given, the exact number is not on record here.

Consider `CNC[C@@H](O)CN1CCc2c(cccc2OCc2ccc(-c3nccs3)cc2)C1`, for which the 50% inhibitory concentration (IC50) in series [1] was 3.7 µM; in [2], > 30 µM; in the series with MOLM-13 [5], 6.93 µM; in [6], 545 nM. For the same molecule, the inhibition entry in series [3] and in series [4] was “inactive” each time. For the same molecule, the Activity entry with THP-1, with MOLT-4, in the series with MONO-MAC-6, in the series on HEL, with K562 and with MOLM-13 [7] was “Dose-dependent effect” throughout. For the same molecule, the Activity result in series [17] is reported as “Non-Toxic”. Moreover, in series [8], the clearance amounted to 44.9 mL/min/kg. Moreover, in series [9], the Vd amounted to 42.6 L/kg. For the same molecule, in series [10], the half-life is 726 min. The area under the curve AUC(0-t) in [11] is 869 ng·h/mL. Besides, the AUC(0-inf) in [12] stood at 3030 ng·h/mL. Also, the fraction unbound at 2 µM in [13] is 0.02. Moreover, the inhibition result in the series with Mus musculus [14] and in the series on Mus musculus [15] was “Active” in each case. Moreover, the concentration at 6 h in [16] came out at 80700 ng/g.
